Laboratory results as given in patent US9884839B2, “Inhibitors of 17Beta-hydroxysteroid dehydrogenases type 1 and type 2” (ElexoPharm GmbH, priority 2014, dated 2018).
Read-outs that look alike come from different tables or passages of the source.

Experiments:
[1] = in vitro; conditions: human, pooled human liver S9 fraction
[2] = molecular target: T1, human 17β-HSD2 (Homo sapiens, UniProt P37059); assay: Inhibition of human 17β-HSD2 (conversion of [3H]-E2 to E1); format: biochemical; conditions: read-out: IC50 [nM] h17β-HSD2
T1 construct: 17β-HSD2 was obtained from the microsomal fraction; from tissue; host or cells: human placenta, microsomal fraction
T1 sequence (P37059 1-387): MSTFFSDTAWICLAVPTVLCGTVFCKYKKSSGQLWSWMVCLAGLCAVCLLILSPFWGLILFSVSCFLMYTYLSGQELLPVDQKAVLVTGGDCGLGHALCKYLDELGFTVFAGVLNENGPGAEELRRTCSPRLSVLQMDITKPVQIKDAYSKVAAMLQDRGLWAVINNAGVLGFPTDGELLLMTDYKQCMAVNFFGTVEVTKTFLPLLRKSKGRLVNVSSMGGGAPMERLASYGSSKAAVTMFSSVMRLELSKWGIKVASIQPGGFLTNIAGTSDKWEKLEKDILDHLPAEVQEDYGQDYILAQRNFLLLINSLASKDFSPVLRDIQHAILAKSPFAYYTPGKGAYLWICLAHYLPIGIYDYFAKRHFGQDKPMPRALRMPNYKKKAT

[3] = molecular target: T2, mouse 17β-HSD1 (Mus musculus, UniProt P51656); assay: Inhibition of mouse 17β-HSD1 (recombinant, HEK293 lysate); format: biochemical
T2 construct: made in house; host or cells: HEK293 cells, transient transfection; 1,000 g supernatant of the cell lysate
T2 sequence (P51656 1-344): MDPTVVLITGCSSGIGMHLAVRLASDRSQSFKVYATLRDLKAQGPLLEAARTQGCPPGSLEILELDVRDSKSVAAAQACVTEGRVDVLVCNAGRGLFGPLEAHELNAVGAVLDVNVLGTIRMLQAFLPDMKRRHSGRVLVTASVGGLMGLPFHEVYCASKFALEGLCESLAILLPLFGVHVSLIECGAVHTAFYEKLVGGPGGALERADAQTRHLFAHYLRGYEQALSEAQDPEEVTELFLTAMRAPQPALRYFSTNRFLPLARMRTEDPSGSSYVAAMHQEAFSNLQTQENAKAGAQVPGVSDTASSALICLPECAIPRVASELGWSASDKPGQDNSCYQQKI

[4] = human liver S9, 1 mg/mL; unit not given
[5] = molecular target: T3, human 17β-HSD1 (Homo sapiens, UniProt P14061); assay: Inhibition of human 17β-HSD1 (conversion of [3H]-E1 to E2, HPLC radioflow detection); format: biochemical
T3 construct: For the partial purification of 17β-HSD1, the cytosolic fraction was precipitated with ammonium sulfate; from tissue; host or cells: human placenta, cytosolic fraction, ammonium sulfate precipitate
T3 sequence (P14061 1-328): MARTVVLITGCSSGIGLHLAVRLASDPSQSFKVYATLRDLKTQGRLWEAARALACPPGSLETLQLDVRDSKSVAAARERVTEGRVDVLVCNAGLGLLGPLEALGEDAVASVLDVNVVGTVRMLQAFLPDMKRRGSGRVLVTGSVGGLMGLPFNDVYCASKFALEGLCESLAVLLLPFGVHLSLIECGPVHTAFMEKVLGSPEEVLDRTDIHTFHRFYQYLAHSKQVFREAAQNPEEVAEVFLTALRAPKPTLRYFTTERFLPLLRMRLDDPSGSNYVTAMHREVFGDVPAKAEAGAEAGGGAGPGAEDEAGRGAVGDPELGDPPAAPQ

[6] = molecular target: T4, mouse 17β-HSD2 (Mus musculus, UniProt P51658); assay: Inhibition of mouse 17β-HSD2 (liver microsomal fraction); format: biochemical; conditions: for inhibition at 1 µM: read-out: Inhibition @ 1 μM m17β-HSD2; for IC50: read-out: IC50 m17β-HSD2
T4 construct: The pellet fractions containing the microsomal 17β-HSD2 were used for the determination of E1 formation; from tissue; host or cells: mouse liver, microsomal fraction
T4 sequence (P51658 1-381): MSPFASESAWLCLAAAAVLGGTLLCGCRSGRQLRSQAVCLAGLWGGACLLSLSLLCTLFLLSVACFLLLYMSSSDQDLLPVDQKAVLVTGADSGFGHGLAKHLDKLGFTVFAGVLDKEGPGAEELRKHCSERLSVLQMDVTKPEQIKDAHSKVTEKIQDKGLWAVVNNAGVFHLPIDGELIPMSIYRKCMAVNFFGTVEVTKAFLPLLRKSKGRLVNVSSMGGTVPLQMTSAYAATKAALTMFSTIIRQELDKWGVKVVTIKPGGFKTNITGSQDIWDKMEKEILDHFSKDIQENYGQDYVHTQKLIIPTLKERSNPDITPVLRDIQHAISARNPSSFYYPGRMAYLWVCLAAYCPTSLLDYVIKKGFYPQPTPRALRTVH

[7] = molecular target: T5, rat 17β-HSD1 (Rattus norvegicus, UniProt P51657); assay: Inhibition of rat 17β-HSD1 (recombinant, HEK293 lysate); format: biochemical; conditions: read-out: % Inhibition r17β-HSD1; for inhibition at 5 µM: Cmpd conc. 5000 nM; for inhibition at […]: Cmpd conc. 250 nM
T5 construct: made in house; host or cells: HEK293 cells, transient transfection; 1,000 g supernatant of the cell lysate
T5 sequence (P51657 1-344): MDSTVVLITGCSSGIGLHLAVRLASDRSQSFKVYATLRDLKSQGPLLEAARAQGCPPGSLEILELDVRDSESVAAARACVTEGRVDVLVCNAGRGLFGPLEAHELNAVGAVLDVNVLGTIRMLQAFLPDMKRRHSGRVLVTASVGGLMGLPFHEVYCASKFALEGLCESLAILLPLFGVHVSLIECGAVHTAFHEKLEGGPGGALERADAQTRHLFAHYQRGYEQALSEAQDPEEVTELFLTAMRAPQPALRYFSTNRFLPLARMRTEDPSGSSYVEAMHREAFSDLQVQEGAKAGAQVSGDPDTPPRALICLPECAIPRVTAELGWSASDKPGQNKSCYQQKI

[8] = molecular target: T6, rat 17β-HSD2 (Rattus norvegicus, UniProt Q62730); assay: Inhibition of rat 17β-HSD2 (liver microsomal fraction); format: biochemical; conditions: read-out: % Inhibition r17β-HSD2
T6 construct: The pellet fractions containing the microsomal 17β-HSD2 were used for the determination of E1 formation; from tissue; host or cells: rat liver, microsomal fraction
T6 sequence (Q62730 1-381): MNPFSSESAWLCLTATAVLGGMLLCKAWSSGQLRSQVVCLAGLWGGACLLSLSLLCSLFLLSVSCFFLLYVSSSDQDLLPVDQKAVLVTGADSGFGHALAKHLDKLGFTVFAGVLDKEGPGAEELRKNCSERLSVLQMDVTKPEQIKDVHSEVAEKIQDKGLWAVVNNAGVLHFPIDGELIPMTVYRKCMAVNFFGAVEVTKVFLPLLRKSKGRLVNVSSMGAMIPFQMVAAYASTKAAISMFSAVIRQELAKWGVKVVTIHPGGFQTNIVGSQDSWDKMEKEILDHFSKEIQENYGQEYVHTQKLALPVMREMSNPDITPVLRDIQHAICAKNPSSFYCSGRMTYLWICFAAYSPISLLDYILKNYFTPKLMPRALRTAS

[9] = read-out: Inhibition @ 1 μM m17β-HSD1
[10] = human placental cytosolic enzyme, E1 500 nM, NADH, Tables 1, 4-11, read-out: IC50 [nM] h17β-HSD1
[11] = read-out: % inhibition m17β-HSD1 @ 1 μM

SMILES	half-life at 1 µM [1] [min]	IC50 [2] [nM]	inhibition at 1 µM [3, 9] [%]	CLint [4]	IC50 [5, 10] [nM]	inhibition at 1 µM [6] [%]	IC50 [6] [nM]	inhibition at 5 µM [7] [%]	IC50 ([5]; read-out: IC50 [nM] h17β-HSD1) [nM]	IC50 ([3]; recombinant mouse enzyme, E1 10 nM, NADPH, read-out: IC50 m17β-HSD1) [nM]	IC50 ([6]; mouse liver microsomal fraction, E2 10 nM, NAD+) [nM]	inhibition at […] [7] [%]	inhibition at […] [8] [%]	inhibition at 1 µM [3, 11] [%]	IC50 [5] [nM]
O=C(c1ccc(-c2cccc(Cl)c2)s1)c1c(F)ccc(O)c1F [Compound 11, [5-(3-Chloro-phenyl)-thiophen-2-yl]-(2,6-difluoro-3-hydroxy-phenyl)-methanone]	4.3	10	60	160.7	1.2	75	–	–	–	–	–	–	–	–	–
COc1ccc(-c2ccc(C(=O)c3c(F)ccc(O)c3F)s2)cc1Cl [Compound 12, [5-(3-Chloro-4-methoxy-phenyl)-thiophen-2-yl]-(2,6-difluoro-3-hydroxy-phenyl)-methanone]	4.6	11	40	149.6	1.3	64	–	–	–	–	–	–	–	–	–
COc1c(Cl)cc(-c2ccc(C(=O)c3c(F)ccc(O)c3F)s2)cc1Cl [Compound 15, [5-(3,5-Dichloro-4-methoxy-phenyl)-thiophen-2-yl]-(2,6-difluoro-3-hydroxy-phen-yl)-methanone]	18.1	41	43	38.3	0.6	–	–	–	–	–	550	–	–	–	–
O=C(c1ccc(-c2cccc(NS(=O)(=O)c3ccc(Br)cc3OC(F)(F)F)c2)s1)c1cc(F)c(F)c(O)c1F [Compound 36, 4-Bromo-N-{3-[5-(2,4,5-trifluoro-3-hydroxybenzoyl)thiophen-2-yl]phenyl}-2-trifluoromethoxybenzenesulfonamide]	–	–	68	–	–	–	–	–	–	–	–	50	100	68	2.4
O=C(c1ccc(-c2cccc(NS(=O)(=O)c3ccccc3C(F)(F)F)c2)s1)c1cc(F)c(F)c(O)c1F [Compound 38, N-{3-[5-(2,4,5-Trifluoro-3-hydroxybenzoyl)thiophen-2-yl]phenyl}-2-trifluoromethylbenzenesulfonamide]	–	–	81	–	–	–	–	–	–	–	–	41	96	81	4.8
Cc1cc(-c2ccc(C(=O)c3cc(F)c(F)c(O)c3F)s2)cc(C)c1O [Compound 50, (5-(4-Hydroxy-3,5-dimethylphenyl)thiophen-2-yl)(2,4,5-trifluoro-3-hydroxyphenyl)methanone]	38	1.3	–	18.2	0.9	–	100	–	–	650	–	–	–	–	–
Cc1cc(-c2ccc(C(=O)c3cccc(O)c3)s2)ccc1O [Compound F1, reference compound]	3.6	384	18	193.8	–	22	–	48	8	–	–	–	–	–	–

More lines, main results first:

half-life at 1 µM [1] [min]	IC50 [2] [nM]	inhibition at 1 µM [3, 9] [%]	CLint [4]	IC50 [5, 10] [nM]	inhibition at 1 µM [6] [%]	IC50 [6] [nM]	inhibition at 5 µM [7] [%]	IC50 ([5]; read-out: IC50 [nM] h17β-HSD1) [nM]	IC50 ([3]; recombinant mouse enzyme, E1 10 nM, NADPH, read-out: IC50 m17β-HSD1) [nM]	SMILES	IC50 ([6]; mouse liver microsomal fraction, E2 10 nM, NAD+) [nM]	inhibition at […] [7] [%]	inhibition at […] [8] [%]	inhibition at 1 µM [3, 11] [%]	IC50 [5] [nM]
2.9	11	38	241.4	0.8	–	78	–	–	–	Cc1cc(C(=O)c2c(F)ccc(O)c2F)sc1-c1ccc(O)c(Cl)c1 [Compound 21, [5-(3-Chloro-4-hydroxy-phenyl)-4-methyl-thiophen-2-yl]-(2,6-difluoro-3-hydroxy-phenyl)-methanone]	–	–	–	–	–
129	39	23	5.4	–	–	209	59	2.4	–	O=C(c1ccc(-c2cc(Cl)c(O)c(Cl)c2)s1)c1c(F)ccc(O)c1F [Compound 23, [5-(3,5-Dichloro-4-hydroxy-phenyl)-thiophen-2-yl]-(2,6-difluoro-3-hydroxy-phen-yl)-methanone]	–	–	–	–	–
10.7	29	23	64.5	3.3	40	–	–	–	–	N#Cc1cc(-c2ccc(C(=O)c3c(F)ccc(O)c3F)s2)ccc1O [Compound 25, 5-[5-(2,6-Difluoro-3-hydroxy-benzoyl)-thiophen-2-yl]-2-hydroxy-benzonitrile]	–	–	–	–	–
11.3	3.1	33	61.5	1.1	89	–	–	–	–	O=C(c1ccc(-c2ccc(O)c(Cl)c2)s1)c1cc(F)c(F)c(O)c1F [Compound 41, (5-(3-Chloro-4-hydroxyphenyl)thiophen-2-yl)(2,4,5-trifluoro-3-hydroxyphenyl)methanone]	–	–	–	–	–
